Test results published in patent publication US7002012B2, “Substituted (1,3-bis(cyclohexylmethyl)-1,2,3,6-tetrahydro-2,6-dioxo-9h-purin-8-YI)phenyl derivatives, their preparation and their use in the treatment of inflammatory conditions and immune disorders” (SmithKline Beecham Corporation, priority 1997, dated 2006).

Experiments:
male Lewis rats [1] = experiment: Carrageenan Pleurisy Assay; assay type: in vivo, rat; conditions: for CARRAGEENAN PLEURISY (4 hr) LOCAL ED50 (MG/RAT) CELLS: inhibition of inflammatory cells (neutrophils) in pleural exudate four hours after carrageenan 0.075 mg/rat; for CARRAGEENAN PLEURISY (4 hr) LOCAL ED50 (MG/RAT) CELLS / CARRAGEENAN PLEURISY (4 hr) LOCAL ED50 (MG/RAT) EDEMA: local administration; for CARRAGEENAN PLEURISY (4 hr) LOCAL ED50 (MG/RAT) EDEMA: inhibition of pleural edema four hours after carrageenan 0.075 mg/rat
Description: The antiinflammatory activity of compounds of the invention was determined by the procedure of Vinegar, R, et al., Proc. Soc. Exp. Biol. Med., 1981, 168, 24–32, using male Lewis rats of 150±±}20 grams. The carrageenan dose was 0.075 mg/rat. Pleural exudate was harvested four hours after injection of carrageenan. Acute antiinflammatory activity was determined by inhibition of pleural edema and inflammatory cells (neutrophils) from a negative (vehicle) control group.

male Lewis rats [2] = experiment: Acetic Acid Colitis Assay; assay type: in vivo, rat; conditions: for ACETIC ACID COLITIS (24 hr) ACTIVE DOSE [MG/KG] (ROUTE) TISSUE WEIGHT: colon weight (edema); for ACETIC ACID COLITIS (24 hr) ACTIVE DOSE [MG/KG] (ROUTE) MPO: mucosal MPO levels
Description: Compounds were administered either orally or rectally 24, 16 and 4 hours prior to the 40 second instillation of 3% acetic acid solution in the proximal 6 cm of the colon under light anesthesia. The colon was immediately washed with 5 cc of saline. 24 hours later the rats were sacrificed and 6 cm of the proximal colon was excised weighed for edema. Neutrophil inflammation was determined by measuring MPO levels in the scraped colonic mucosa from these rats.

Male CD-1 mice = experiment: In Vivo Septic Shock Model: C Parvum/LPS Shock; conditions: oral dose 75 mg/kg, 2 hours before the LPS and at the same time as the LPS
Description: Male CD-1 mice, 25–30 g (Charles River: Raleigh, N.C.), are injected intravenously (i.v.) with 100 μμ}g killed C. Parvum (Coparvax; Burroughs Wellcome, RTP, NC).Ten days later the mice are injected i.v. with 20 μμ}g E. Coli 026:B6 lipopolysaccharide (LPS; Difco Labs, Detroit, Mich.) in the presence of the analgesic butorphenol (150 μμ}g per mouse).
The test compounds are dissolved in dimethyl sulphoxide and diluted into 0.5% methyl cellulose and then dosed orally 2 hours before the LPS and at the same time as the LPS.

[3] = ic = intracolonic administration

Row | Compound | CARRAGEENAN PLEURISY (4 hr) LOCAL ED50 (MG/RAT) CELLS (male Lewis rats [1]) | CARRAGEENAN PLEURISY (4 hr) LOCAL ED50 (MG/RAT) EDEMA (male Lewis rats [1]) [MG/RAT] | also measured
1 | (E)-4-(1,3-Bis(cyclohexylmethyl)-1,2,3,6-tetrahydro-2,6-dioxo-9H-purin-8-yl)cinnamic Acid Polyethylene Glycol (n=41.5) Methyl Ether Ester [Example 14] | Inactive | 0.5 | 
2 | (E)-4-(1,3-Bis(cyclohexylmethyl)-1,2,3,6-tetrahydro-2,6-dioxo-9H-purin-8-yl)cinnamic Acid Polyethylene Glycol (n=18.9) Ester [Example 17] | 0.1 MG/RAT | 0.1 | 
3 | COCCOCCOCCOCCOCCOCCOCCOCCOCCOC(=O)/C=C/c1ccc(-c2nc3c(=O)n(CC4CCCCC4)c(=O)n(CC4CCCCC4)c3[nH]2)cc1 [Example 10, (E)-4-(1,3-Bis(cyclohexylmethyl)-1,2,3,6-tetrahydro-2,6-dioxo-9H-purin-8-yl)cinnamic Acid Nonaethylene Glycol Methyl Ether Ester] | 0.5 MG/RAT | 0.5 | ACETIC ACID COLITIS (24 hr) ACTIVE DOSE [MG/KG] (ROUTE) TISSUE WEIGHT (male Lewis rats [2]; po = oral administration): 50 mg/kg; ACETIC ACID COLITIS (24 hr) ACTIVE DOSE [MG/KG] (ROUTE) MPO (male Lewis rats [2]; po = oral administration): 50 mg/kg
4 | COCCOCCOCCOCCOCCOCCOCCOCCOCCOCCOC(=O)/C=C/c1ccc(-c2nc3c(=O)n(CC4CCCCC4)c(=O)n(CC4CCCCC4)c3[nH]2)cc1 [Example 9, (E)-4-(1,3-Bis(cyclohexylmethyl)-1,2,3,6-tetrahydro-2,6-dioxo-9H-purin-8-yl)cinnamic Acid Decaethylene Glycol Methyl Ether Ester] | 0.02 MG/RAT | 0.2 | % Survivors (Male CD-1 mice): 50%; Alive/Total (Male CD-1 mice): 4/8; ACETIC ACID COLITIS (24 hr) ACTIVE DOSE [MG/KG] (ROUTE) TISSUE WEIGHT (male Lewis rats [2]; [3]): 5.0 mg/kg; ACETIC ACID COLITIS (24 hr) ACTIVE DOSE [MG/KG] (ROUTE) MPO (male Lewis rats [2]; [3]): 5.0 mg/kg
5 | C[C@@H]1C[C@H]2[C@@H]3CCC4=CC(=O)C=C[C@]4(C)[C@@]3(F)[C@@H](O)C[C@]2(C)[C@@]1(O)C(=O)CO [Dexamethasone, reference compound] | 0.02 MG/RAT | 0.015 | ACETIC ACID COLITIS (24 hr) ACTIVE DOSE [MG/KG] (ROUTE) TISSUE WEIGHT (male Lewis rats [2]; [3]): 0.17 mg/kg; ACETIC ACID COLITIS (24 hr) ACTIVE DOSE [MG/KG] (ROUTE) MPO (male Lewis rats [2]; [3]): 0.03 mg/kg
6 | (E)-4-(1,3-Bis(cyclohexylmethyl)-1,2,3,6-tetrahydro-2,6-dioxo-9H-purin-8-yl)cinnamic Acid Polyethylene Glycol (n=13) Ester [Example 18] | 0.1 MG/RAT | 0.1 | 
7 | (E)-4-(1,3-Bis(cyclohexylmethyl)-1,2,3,6-tetrahydro-2,6-dioxo-9H-purin-8-yl)cinnamic Acid Polyethylene Glycol (n=15) Methyl Ether Ester [Example 15] | 0.4 MG/RAT | 0.2 | ACETIC ACID COLITIS (24 hr) ACTIVE DOSE [MG/KG] (ROUTE) TISSUE WEIGHT (male Lewis rats [2]; po = oral administration): inactive; ACETIC ACID COLITIS (24 hr) ACTIVE DOSE [MG/KG] (ROUTE) MPO (male Lewis rats [2]; po = oral administration): 50 mg/kg
8 | O=C(O)/C=C/c1ccc(-c2nc3c(=O)n(CC4CCCCC4)c(=O)n(CC4CCCCC4)c3[nH]2)cc1 [compound 1, (E)-4-[1,3 Bis(cyclohexylmethyl)-1,2,3,6-tetrahydro-2,6-dioxo-9H-purin-8-yl]cinnamic acid, reference compound] |  |  | % Survivors (Male CD-1 mice): 25%; Alive/Total (Male CD-1 mice): 2/8; activity in Acetic Acid Colitis Assay (male Lewis rats [2]): inactive; activity in Carrageenan Pleurisy Assay (male Lewis rats [1]): inactive
9 | (E)-4-(1,3-Bis(cyclohexylmethyl)-1,2,3,6-tetrahydro-2,6-dioxo-9H-purin-8-yl)cinnamic Acid Polyethylene Glycol (n=32.2) Ester [Example 16] | 0.2 MG/RAT | 0.2 | 
